Experimental data published in patent US8394929B2, “Nogo receptor-mediated blockade of axonal growth” (Yale University, priority 2000, dated 2013).
Read-outs that look alike come from different tables or passages of the source.

B1: NgR-ecto: secreted fragment of amino acid residues 1-348 of the murine NgR, in HEK293T conditioned medium (protein)
chain: CPGACVCYNEPKVTTSCPQQGLQAVPTGIPASSQRIFLHGNRISHVPAASFQSCRNLTILWLHSNALARIDAAAFTGLTLLEQLDLSDNAQLHVVDPTTFHGLGHLHTLHLDRCGLRELGPGLFRGLAALQYLYLQDNNLQALPDNTFRDLGNLTHLFLHGNRIPSVPEHAFRGLHSLDRLLLHQNHVARVHPHAFRDLGRLMTLYLFANNLSMLPAEVLMPLRSLQYLRLNDNPWVCDCRARPLWAWLQKFRGSSSEVPCNLPQRLADRDLKRLAASDLEGCAVASGPFRPIQTSQLTDEELLSLPKCCQPDAADKASVLE
modifications: left off: small tags and cut ends
notes: secreted fragment of amino acid residues 1-348 of the murine NgR, in HEK293T conditioned medium

Test system: CNS myelin induced neurite outgrowth inhibition
Assay: Blockade of CNS myelin induced neurite outgrowth inhibition in chick DRG neurons
Assay type: cell-based
Method: To determine the antagonistic activity of Peptide 140 against CNS myelin, the above synthetic peptide was added approximately 10 min before application of CNS myelin. 30 min later, cultures were fixed and growth cone collapse was assessed following staining with rhodamine-phalloidin. For neurite outgrowth assays, plastic chamber slide were coated with 100 μg ml^−1 poly-L-lysine, washed, and dried. 3 μl drops of PBS containing CNS myelin were spotted and dried. Slides were then rinsed and coated with 10 μg ml fs24^−1 laminin before addition of dissociated E12 chick DRGs. Peptide 140, or the scrambled version of Peptide 140, was added at the time of cell plating. Cultures were grown for 5-7 h after which neurite outgrowth was assessed.
Although the role of the GPI anchor may be to regulate NgR cellular compartmentalization, another possible role for the GPI linkage is to provide a NgR cleavage site. Cleaving NgR could serve to affect hNogo-A (1055-1120) signaling by rendering a neuron insensitive to hNogo-A (1055-1120) and by releasing soluble NgR that could then act on adjacent cells to modulate hNogo-A (1055-1120) signaling. To determine if soluble mNgR modulates hNogo-A (1055-1120)-dependent inhibition, a soluble mNgR was generated by inserting a truncated cDNA encoding mNgR residues 1-348 in frame with a myc-His carboxy tag into pcDNA3.1. The resulting plasmid expressing mNgREcto was transfected into HEK293T cells, and conditioned media containing mNgREcto protein was collected. To test the effect of mNgREcto on Nogo signaling, E13 dissociated DRGs were plated in the presence of hNogo-A (1055-1120) or myelin. The inhibitors were presented in either soluble or substrate-bound forms. For neurite outgrowth assays on hNogo-A (1055-1120) or myelin substrates, Permanox chamber slides were coated with 100μ, fs24 g ml^−1 poly-L-Lysine, washed, and then 3-μl drops of phosphate-buffered saline (hereinafter “PBS”) containing 0, 10, 50, or 150 ng of GST-hNogo-A (1055-1120) or myelin were spotted and dried. GST-hNogo-A (1055-1120) and myelin were prepared as previously described (GrandPre et al., supra; Fournier et al., J. Cell Biol. 149:411-421, 2000). After three PBS washes, slides were coated with 10 μg ml^−1 laminin. Laminin was then aspirated and dissociated E13 chick DRG neurons were added. After 6-8 hr of outgrowth, cultures were fixed and neurite outgrowth lengths were assessed. For blockade experiments with NgREcto, spots were incubated with HEK293T cell conditioned media or NgREcto-transfected-HEK293T cell conditioned media following for 1 hr following the laminin coating step and before the addition of dissociated neurons. […] Thus, soluble fragments of NgR might serve physiologically or pharmacologically to reduce GST-hNogo-A (1055-1120) inhibition of axonal regeneration.

Molecule	blockade of CNS myelin induced neurite outgrowth inhibition (in words)	blockade of CNS myelin induced neurite outgrowth inhibition (in words) (listed as 2-41 fragment)	concentration at which maximal activity is obtained (bound CNS myelin)	neurite outgrowth on a 20 ng spot of myelin (as compared with control outgrowth) (following treatment with Peptide 140, E12 chick DRG)	blockade of CNS myelin induced neurite outgrowth inhibition (in words) (listed as NgR ectodomain protein)	blockade of CNS myelin induced neurite outgrowth inhibition (in words) (listed as NgREcto)	blockade of CNS myelin induced neurite outgrowth inhibition (in words) (listed as mNgR ectodomain protein)
Pep2-41: 2-41 fragment of the 66 amino acid region of Nogo, acetylated and amidated at the termini (Ac-RIYKGVIQAIQKSDEGHPFRAYLESEVAISEELVQKYSNS-NH2)	can reverse the inhibition of neurite outgrowth	blocks	–	–	–	–	–
Peptide 140: synthetic peptide of amino acids #1055-1094 of the human NogoA protein, acetylated and amidated at the termini (Ac-RIYKGVIQAIQKSDEGHPFRAYLESEVAISEELVQKYSNS-NH2; UniProt Q9NQC3 1055-1094, looked up, fragment)	partial neutralization	–	approximately 250 nM	65%	–	–	–
B1	blocks the ability of CNS myelin to inhibit axonal outgrowth	–	–	–	blocked	partially reversed	blocked
